Test results taken from US8846096B2, “Nanoparticles and methods of use” (Creighton University, priority 2008, dated 2014).
Each block holds one compound with its values, some of them ahead of it.

What was measured:
[1] = Nanoparticle characterization (size, zeta potential, drug loading, entrapment efficiency); assay type: physicochemical; conditions: per drug, HPLC
Experimental: Briefly, in a typical procedure, a solution of ethylene oxide/propylene oxide block copolymer (Poloxamer-127; 2% [w/v] in double distilled water (ddH2O 10 mL); BASF, Mt. Olive, N.J.) was homogenized with ART drug powder (1 mg of each) in poly-lactic-co-glycolic acid) (PLGA) polymer (molecular weight 110,000-139,000 Daltons (100 mg) in 10 mL methylene chloride) using a probe sonicator (21W for 6 min) (Sonicator XL, Misonix, Farmingdale, N.Y.). The water-in-oil emulsion thus formed was further emulsified into 30 mL of 0.25% (w/v) aqueous solution of polyvinyl alcohol (PVA) as an emulsifier by using sonication as described above for 5 minutes to fowl multiple water-in-oil-in-water emulsion. […] Additionally, 6-hydroxycoumarin (a fluorescent dye; 1% w/v) was added to the polymer solution and one milligram of each ART were fabricated to make fluorescent nanoparticles for flow cytometry. In all formulation procedures, the emulsion was stirred for approximately 18 hours at room temperature to evaporate the organic solvent, methylene chloride, followed by ultracentrifugation (15,000 G for 45 minutes at 4° C., Optima LE-80K, Beckman, Palo Alto, Calif.), rinsed twice with ddH2O to remove PVA, and unentrapped drugs, and then lyophilized (Labconco, Freezone 4.5 at −52° C. and 5.62 torr) for 24 hours to obtain a dry powder.
Nanoparticle characterization: Nanoparticles were evaluated for size by […] as well as scanning electron microscopy (SEM) and surface charge by using a zeta potential analyzer (ZetaPlus, Brookhaven Instruments, Holtsville, N.Y.). For SEM, a sample of nanoparticles was suspended in water (0.2 mg/ml) and an aliquot of suspended particles were placed onto a tip and sputter coated with 2% w/v uranyl acetate, dried, and then visualized by using a JEOL-40A (JEOL Ltd, Sheboygan, Wis.) scanning electron microscope. Additionally, one milligram of formed particles was dissolved in one milliliter methylene chloride in glass tubes and evaporated overnight in quadruplicate. High pressure liquid chromatography (HPLC) mobile phase (200 μL) reconstituted the tubes. The tubes were centrifuged (11,000 rpm, 10 minutes, 4° C.) and aliquots were injected into the HPLC equipment to determine ART drug loading and entrapment efficiency.
Standards were analyzed in triplicate and averaged.

[2] = Serum pharmacokinetics after a single intraperitoneal dose in mice; conditions: for MRT: MRT (mean residence time within the serum)
Experimental: (§1) The particles were weighed, reconstituted with PBS and 500 μg was injected intraperitoneally (IP) into male BALB/c mice. At specific times, (free: 0.08, 0.167, 0.25, 0.33, 1, 2 and 3 days; antiretroviral nanoparticles: 0.167, 0.33, 1, 2, 4, 7, 14, 21, 28, and 35 days) mice (n=3/time point) were euthanized and selected organs and serum were harvested for antiretroviral drug levels. Results are presented as mean±SEM.
(§2) The nanoparticle powder was weighed and 500 μg was dissolved in phosphate-buffered saline (PBS) and injected intraperitoneally into each BALB/c male mice (25-28 g). […] At specified times points, mice (n=3-4) were euthanized using a CO2 chamber and organs (spleen, liver, kidney, brain, testes) and blood (100-150 μL) were removed from each of the mice. Blood was allowed to clot, centrifuged (1000×G) and serum was harvested. The organs were harvested and immediately placed on ice. At weekly intervals, an aliquot of the organ tissue was weighed and 500 μL of 100% methanol was added to tissue and serum samples. The tissue was homogenized using a pellet homogenizer, equilibrated at 4° C. for 30 minutes, and then centrifuged (11,400 RPM×15 minutes at 4° C.). An aliquot of the supernatant (20 μL/injection) was added to autosampler vials with glass inserts. […] Duplicate samples from tissues and serum were assayed and standards were assayed in triplicate. The organ/serum samples were compared to the standard curve (45-1000 ng/ml) that was performed on that day using peak area and EZ-Chrom software (Shimadzu, Corp.).
Data is presented as mean±SEM where appropriate. Serum concentration-time curves were used to determine pharmacokinetic parameters. Elimination rate constant was determined using nonlinear regression of the terminal phase of the serum concentration-time curve. Apparent volume of distribution, total body clearance, mean residence time and area under the serum concentration-time curve to the last concentration obtained (AUC0-last) were determined by non-compartmental modeling.

[3] = Drug levels in organs and serum of mice after a single intraperitoneal dose; conditions: male, BALB/c, mouse, liver, ip, 500 μg
Experimental: as §1
as §2, with “The organ/serum samples were compared to the standard curve (45-1000 ng/ml) that was performed on that day using peak area and EZ-Chrom software (Shimadzu, Corp.).” left out

PBMCs = assay: ART release from nanoparticles / free drug: intracellular drug levels in PBMCs by HPLC
Experimental: High pressure liquid chromatography (HPLC): HPLC was performed using a previously reported method (Weller et al., J. Chromatogr. B Analyt. Technol. Biomed. Life Sci., 2007, 848(2):369-73). Briefly, the equipment included a pump (LC-10ATvp), system controller (SIL-10ADvp); degasser unit (DGU-14A), refrigerated auto-sampler (SIL-10ADvp); and a UV-Vis detector (SPD-10ADvp) and a column heater (set at 35° C.) (all from Shimadzu Corporation, Columbia, Md.). Samples were run through a C18 pre-column and a Jupiter C18 reverse-phase [150×3.9 mm (I.D.)] with […] particle size packing (Phenomenex, Torrance, Calif.). The mobile phase was 25 mM KHPO4 (pH 4.9) and acetonitrile (40:60). The mobile phase was filtered and degassed prior to use. Flow rate was set at 0.9 mL/min and the detector was set at 212 nm. […] Peak area from the samples and standards were integrated using EZ-Start chromatography software (Shimadzu) on a Dell computer. Injection volume was 20 μL and all samples were analyzed in duplicate and averaged. Standards were analyzed in triplicate and averaged.
Human monocyte isolation and cultivation: Human PBMCs were obtained from whole blood collection of HIV-1, -2 and hepatitis B seronegative donor and purified using CPT Vacutainer tubes (BD and Co., Sparks, Md.) according to the manufacturer instructions. […] (1×10^6 cells/mL) were cultured in DMEM supplemented with 10% heat-inactivated pooled human serum, 1% glutamine, 1% penicillin-streptomycin, and 10 µg/mL ciprofloxacin (Sigma Chemical Co) then filter sterilized. The PBMCs were used within 2 hours after blood collection. Media was one-half exchanged with fresh media every 2-3 days. These cells were used for ART drug release experiments from nanoparticles as determined by HPLC. Human PBMCs at 5×10^6 were cultured in DMEM supplemented with 10% heat-inactivated pooled human serum, 1% glutamine, 1% penicillin-streptomycin, and 10 µg/mL ciprofloxacin (Sigma Chemical Co), and 1000 U/mL highly purified recombinant human macrophage colony stimulating factor (MCSF; R&D Systems, Inc; Minneapolis, Minn.) for seven days. Media was one-half exchanged very 2-3 days. Monocyte-derived macrophages (MDM) were used for TEM and fluorescent imaging.
ART Release from Nanoparticles: Antiretroviral nanoparticles (100 μg) were added to PBMC cell cultures. Flasks containing PBMCs and ART nanoparticles were placed in a 37° C., 5% CO2 incubator. At the appointed time, media in the flask was placed in a sterile 15 mL conical tube and centrifuged (400×G, 24° C. for 10 minutes). Cells (250 μL) were removed from the tube and put into a microfuge tube for HPLC analysis. […] Cell samples were placed in microfuge tubes, 250 μL of 100% methanol was added to lyse the cells then the cells were frozen (−20° C.) until assayed for ART drugs using HPLC. When HPLC was performed, microfuge tubes were thawed, centrifuged at 15,000 rpm at 4 C for 10 minutes and an aliquot of supernatant was placed into autosampler vials with glass insert. Free drugs (25 μg/mL of each ART drug) was dissolved in HPLC-grade ethanol, incubated with the PBMCs and cells were removed at 2, 4, 8, 24, and 48 hours, lysed with methanol, centrifuged, and assayed by HPLC as controls of these experiments.

[4] = PLGA NPs 500 μg IP, mice, listed as E
[5] = male, BALB/c, mouse, in vivo, ip, 500 ug
[6] = male, BALB/c, mouse, in vivo, ip, 500 ug, Elimination half-life, drug given as PLGA nanoparticles, averaging
[7] = male, BALB/c, mouse, in vivo, ip, 500 ug, Free ART
[8] = male, BALB/c, mouse, in vivo, ip, 500 ug, NP ART
[9] = male, BALB/c, mouse, in vivo, ip, 500 ug, T1/2 (elimination half-life), Free ART
[10] = male, BALB/c, mouse, in vivo, ip, 500 ug, T1/2 (elimination half-life), NP ART

- Antiretroviral drug loading of the nanoparticles [1]: 10.8%
- Entrapment efficiency [1]: 86%
- Peak serum level, drug given as PLGA nanoparticles ([2]; PLGA NPs 500 μg IP single dose, mice): 853.2 ± 64.1 ng/mL
- AUC (area under the serum concentration-time curve), NP ART ([2]; PLGA NPs 500 μg IP, mice): E: 5716.9 ± 3177.7 ng-day/ml
- ClT (total body clearance), NPs ([2]; PLGA NPs 500 μg IP, mice): 4.1 ± 3.06 L/day/kg
- Time of peak serum level, drug given as PLGA nanoparticles ([2]; PLGA NPs 500 μg IP, mice): 0.25 h
- Vd (volume of distribution), NP ART ([2]; PLGA NPs 500 μg IP, mice): 11.38 ± 10.72 L/kg
- MRT (mean residence time within the serum), NP ART [2, 4]: E: 10.3 ± 4.24 days
- Vd (volume of distribution), NP ART [2, 4]: E: 11.4 ± 10.7 L/kg
- Peak serum level, free drug ([2]; free drugs 500 μg IP single dose, mice, 4 hours post-injection): 3.5 ± 1.9 µg/L
- AUC (area under the serum concentration-time curve, AUC0-last), Free ART ([2]; free drugs 500 μg IP, mice): 646 ± 640 ng·days/mL
- Time of peak serum level, free drug ([2]; free drugs 500 μg IP, mice): 4 h
- Vd (volume of distribution), Free ART ([2]; free drugs 500 μg IP, mice): 39.3 ± 26.6 L/kg
- T1/2 (elimination half-life), Free ART ([2]; free drugs 500 μg IP, mice, serum, listed as E): E: 11.76 ± 2.8 hrs
- AUC (area under the serum concentration-time curve, AUC0-last), Free ART [2, 5]: E: 645. 9 ± 640.2 ng-day/ml
- MRT ([2]; male, BALB/c, mouse, serum, ip, 500 ug, Free ART, free drugs 500 μg IP, mice): 13.7 h
- MRT ([2]; male, BALB/c, mouse, serum, ip, 500 ug, NP ART, PLGA NPs 500 μg IP, mice): 248 h
- half-life ([2]; male, BALB/c, mouse, serum, ip, 500 ug, T1/2 (elimination half-life), Free ART, free drugs 500 μg IP, mice): 708 ± 168 min
- half-life ([2]; male, BALB/c, mouse, serum, ip, 500 ug, T1/2 (elimination half-life), NP ART, PLGA NPs 500 μg IP, mice): 2130 min
- concentration at 28 day [3]: 1020 ± 440 ng/g
- Intracellular peak level, drug given as nanoparticles (PBMCs; PLGA NPs (100 μg) incubated with PBMCs): 10.6+2.7 μg
- Time of intracellular peak concentration, drug given as nanoparticles (PBMCs; PLGA NPs incubated with PBMCs): 24 h
- Time of intracellular peak level, drug given as nanoparticles (PBMCs; PLGA NPs incubated with PBMCs (summary of Example 1)): 4 days
- Intracellular peak concentration, free drug (PBMCs; free drug 25 μg/mL in ethanol, PBMCs, at 8 hours): 3.1+0.02 μg
- Time of intracellular peak concentration, free drug (PBMCs; free drug, PBMCs): 8 h
- Time to elimination of free drug from PBMCs (PBMCs; human, 25 μg/mL): ≤ 48 h
Compound: O=C1Nc2ccc(Cl)cc2[C@@](C#CC2CC2)(C(F)(F)F)O1 [EFV, efavirenz]

- Antiretroviral drug loading of the nanoparticles [1]: 5.2%
- Vd (volume of distribution), Free ART [2, 5]: 41.6 ± 31.7 L/kg
- Vd (volume of distribution), NP ART [2, 5]: 118.6 ± 165.9 L/kg
- half-life [2, 6]: > 101000 min
- MRT [2, 7]: 14.4 h
- MRT [2, 8]: 5490 h
- half-life [2, 9]: 906 ± 384 min
- half-life [2, 10]: 38700 min
- AUC (area under the serum concentration-time curve), NP ART ([2]; mouse, in vivo, ip, 500 ug): L: 3329.8 ± 1785.3 ng-day/ml
- Time of intracellular peak concentration, free drug (PBMCs; human, 25 μg/mL): 8 h
- Time to elimination of free drug from PBMCs (PBMCs; human, 25 μg/mL): ≤ 48 h
- Intracellular peak level, drug given as nanoparticles (PBMCs; human, 100 μg): 4.1+2.0 μg
- Time of intracellular peak concentration, drug given as nanoparticles (PBMCs; human, 100 μg): 96 h
- Time of intracellular peak level, drug given as nanoparticles (PBMCs; human, 100 μg): 4 days
Compound: Cc1cccc(C)c1OCC(=O)N[C@@H](Cc1ccccc1)[C@@H](O)C[C@H](Cc1ccccc1)NC(=O)[C@H](C(C)C)N1CCCNC1=O [LPV, lopinavir]

- Antiretroviral drug loading of the nanoparticles [1]: 4.9%
- Vd (volume of distribution), Free ART [2, 5]: 9.7 ± 4.4 L/kg
- Vd (volume of distribution), NP ART [2, 5]: 549.9 ± 360 L/kg
- half-life [2, 6]: > 101000 min
- MRT [2, 7]: 4.8 h
- MRT [2, 8]: 775 h
- half-life [2, 9]: 576 ± 168 min
- half-life [2, 10]: 330000 min
- AUC (area under the serum concentration-time curve), NP ART ([2]; mouse, in vivo, ip, 500 ug): R: 7020.5 ± 11428.7 ng-day/ml
- Time of intracellular peak concentration, free drug (PBMCs; human, 25 μg/mL): 8 h
- Time to elimination of free drug from PBMCs (PBMCs; human, 25 μg/mL): ≤ 48 h
- Intracellular peak level, drug given as nanoparticles (PBMCs; human, 100 μg): 2.5+1.1 μg
- Time of intracellular peak concentration, drug given as nanoparticles (PBMCs; human, 100 μg): 96 h
- Time of intracellular peak level, drug given as nanoparticles (PBMCs; human, 100 μg): 4 days
Compound: CC(C)c1nc(CN(C)C(=O)N[C@H](C(=O)N[C@@H](Cc2ccccc2)C[C@H](O)[C@H](Cc2ccccc2)NC(=O)OCc2cncs2)C(C)C)cs1 [RTV, ritonavir]
